# Measured values: US20210371817A1, “COMPOSITIONS AND METHODS FOR PRECISE PATTERNING OF POSTERIOR NEUROECTODERM FROM HUMAN PLURIPOTENT STEM CELLS” (WISCONSIN ALUMNI RESEARCH FOUNDATION, priority 2013, published 2021)
# “Also recorded” adds a separate entry of the source.
# What was measured:
# [1] = tested on: neuromesodermal progenitors; experiment: Accelerated neuronal differentiation of neuromesodermal progenitors; type: cell-based, human; conditions: DAPT 1 μM; within 7 days
# Experimental: For assessment of columnar identity by FoxP1 expression, cells were bulk passaged by scraping and re-seeded in VTN-NC-coated chamber slides at a 1:200 ratio in E6 medium containing 1 μM RA and 100 nM purmorphamine (PM; Cayman Chemicals). RA/PM treatment was carried out for 7 days, followed by an additional 7 day treatment with 10 ng/ml brain-derived neurotrophic factor (BDNF; Peprotech), 10 ng/ml glial-derived neurotrophic factor (GDNF; Peprotech), and cAMP (1 μM; Sigma). For accelerated neuronal differentiation, neuromesodermal progenitors were treated with 1 μM RA, 2 μM PM, and 1 μg/ml recombinant sonic hedgehog (SHH) for 2 days, then passaged with ACCUTASE® and re-seeded in VTN-NC coated chamber slides at 1×10^4 cells/cm^2 in E6 medium containing 1 μM RA, 1 μM DAPT (Cayman Chemicals), 10 ng/ml BDNF, 10 ng/ml GDNF, and 1 μM cAMP for 7 days.
# Immunocytochemistry. Immunocytochemistry was conducted as previously described. Primary antibodies against Sox2 (1:500), brachyury (1:500), Pax6 (rabbit; 1:500; Covance), N-cadherin (mouse; 1:500; BD Biosciences), Otx2 (goat; 1:500; R&D Systems), HoxB4 (rat; 1:50; DSHB), HoxD10 (goat; 1:500; R&D Systems), NeuN (mouse; 1:100; Millipore), Hb9 (mouse; 1:50; DSHB), ISL1 (mouse; 1:100; DSHB), and FoxP1 (rabbit; 1:20,000; Abcam) were utilized. Samples were visualized on a Nikon Ti-E epifluorescence microscope or a Nikon AIR confocal microscope. […]
# [2] = tested on: neuromesodermal cultures; experiment: Effect of signaling pathway inhibitors on neuromesodermal identity (Sox2 and T by flow cytometry); conditions: for Sox2+ cells: LY-294002 10 μM, U0126 10 μM, GF109203X 3 μM, or all three at 1 μM, after 2 days
# Description: (FIG. 13A) Timeline of neuromesodermal differentiation and inhibitor addition. (FIG. 13B) Neuromesodermal identity assessed by Sox2 and Brachyury (T) expression after two days. Grey histograms, IgG control. Red histograms, label of interest. LY, LY-294002; U0126, U0126; Gf, GF109203X.
# In an attempt to identify which downstream signaling pathways are responsible for FGF's effects, we performed our protocol with various combinations of a PI3K inhibitor (LY-294002), an MEK inhibitor (U0126), and a PKC inhibitor (GF109203X), and measured Sox2 and T levels using flow cytometry.
# [3] = tested on: neuromesodermal cells; experiment: Pax6 and HoxD10 expression after GDF11 with or without dorsomorphin, then RA; type: cell-based, human; conditions: dorsomorphin with GDF11 and throughout RA treatment
# Description: (FIG. 7A) Timeline of differentiation. (FIG. 7B) qPCR assessment of lumbar/sacral gene expression at day 12. A minimum concentration of GDF11 is required to activate HoxD10 and HoxA11. Each gene is normalized to the maximum GDF11 dose. Error bars are standard deviation calculated from duplicate reactions. (FIG. 7C) Expression of Pax6 in response to increased GDF11 concentrations. Data were collected by flow cytometry and represented as mean±standard deviation calculated from two biological replicates. Sox2 was uniformly expressed regardless of GDF11 treatment (data not shown). […] Grey histograms, IgG control; Red histograms, Pax6. Data are representative of two biological replicates. […] Percentages were quantified as HoxD10 labeling relative to DAPI-stained nuclei (>2500 total cells counted per sample). Scale bars, 100 μm
# After neural tube closure in vivo, opposing gradients of TGFβ and SHH signaling produce distinct dorsal and ventral domains from which sensory neurons, interneurons, and motor neurons arise. Pax6, which has been identified as a neuroectoderm fate determinant, is expressed throughout most of the neural tube but is absent from the most dorsal and ventral domains. […] The ability of GDF11 to control rostral/caudal patterning is mediated by signaling via ALK5 and activation of the SMAD2/3 complex. […]
# [4] = tested on: H9 hESCs; experiment: HOX, OTX2 and T gene expression by RT-PCR/qPCR during hESC differentiation with morphogens; type: cell-based, human
# Experimental: hPSC differentiation. hPSCs were washed once with phosphate-buffered saline (PBS; Invitrogen), dissociated with ACCUTASE® (Invitrogen) for 3 min, and collected by centrifugation. hPSCs were then seeded onto VTN-NC-coated plates in E8 medium containing 10 μM ROCK inhibitor (Y27632; R&D Systems). Seeding density was 2×10^5 cells/cm^2. The following day, the cells were switched to E6 medium (same composition as E8 medium minus FGF2 and TGFβ 1). Morphogen treatments were then carried out according to the figures in the text. Cells were supplemented with FGF8b (100-200 ng/ml; Peprotech), CHIR99021 (3-6 μM; Tocris), and/or RA (3 μM; Sigma).
# Reverse transcriptase polymerase chain reaction (RT-PCR). Total RNA was extracted from cells using TRIZOL® reagent (Invitrogen) according to the manufacturer's instructions. RNA was then subjected to reverse-transcription using a Thermoscript™ RT-PCR kit (Invitrogen) in a 20 μL mixture according to the manufacturer's instructions. The resulting cDNA was then amplified in a 25 μL mixture containing 10×PCR buffer, 0.2 mM dNTP, 1.5 mM MgCl2, 0.5 μM of each primer, and 1 U Taq DNA polymerase (Invitrogen). Amplified products were resolved on 2% agarose gels containing SYBR Safe (Invitrogen) and visualized with a VersaDoc (BioRad). Primer sequences can be found in Table 3. All amplifications were carried out for 35 cycles. HOXC5 and HOXC6 were amplified at 58° C., all others with an annealing temperature of 55° C.
# Propagation and differentiation of neuromesodermal progenitors. H9 hESCs (passage 25-45), H9 ishcat2 hESCs (passage 33-43), and IMR90-4 iPSCs (passage 31-40) were maintained in E8 medium on MATRIGEL© (BD Biosciences) as previously described. To initiate differentiation, hPSCs were passaged with ACCUTASE© (Life Technologies) onto vitronectin (VTN-NC)-coated plates at a density of 1×10^5 cells/cm^2 as previously described. The following day, cells were changed to E6 medium. 24 h later, cells were changed to E6 medium containing 200 ng/ml FGF8b (Peprotech). 24 h later, cells were washed once with 2 ml PBS, treated with ACCUTASE® for 2 min, and removed from the surface by gentle pipetting. After collection by centrifugation, cells were gently resuspended in E6 medium containing 200 ng/ml FGF8b and CHIR99021 (CHIR, concentration varied depending on cell line; Tocris) and re-seeded on VTN-NC-coated plates at a density of 1.5×10^5 cells/cm^2. Medium was not changed until 48 h after passaging. This passaging process was repeated on day 3 of CHIR 99021 treatment (re-seed density of 1.2×10^5 cells/cm^2) if extended neuromesodermal propagation was required, and 50 ng/ml GDF11 (Peprotech) was added on day 4 of CHIR 99021 treatment to initiate lumbar patterning. Cells were changed to E6 medium containing 1 μM retinoic acid (RA; Sigma) to facilitate neural transition.
# qPCR. Total RNA was extracted from cultured cells using TRIZOL® (Life Technologies) according to the manufacturer's instructions. After isolation, 2-5 μg of total RNA was immediately subjected to reverse transcription using the Thermoscript™ RT-PCR kit (Life Technologies) in a 20 μL reaction according to the manufacturer's instructions. […] For all experiments, ΔΔCt values for each gene were calculated relative to ribosomal protein S18 (RPS18) RNA levels and converted to fold difference assuming 100% primer efficiency, then normalized to maximum expression levels as indicated in each figure legend. […]
# [5] = tested on: neuromesodermal progenitors; experiment: Neuroectoderm or mesoderm fate transition of neuromesodermal progenitors by flow cytometry; type: cell-based, human
# Experimental: Assessment of neuroectoderm or mesoderm fate transition by flow cytometry. Grey histogram, IgG control; red histogram, antigen of interest. Data are presented as mean±standard deviation calculated from two biological replicates. (FIG. 8B) For experiments in panels FIGS. 8C-8F, neuromesodermal propagation was halted by removing FGF8b/CHIR 99021/GDF11 and adding RA. Assays were conducted after 4 days of RA treatment. (FIG. 8C) HOX profiles generated after RA treatment. Each gene is normalized to its maximum expression. Error bars are standard deviation calculated from duplicate reactions. (FIG. 8D) HoxB4 and HoxD10 expression in neuroepithelial cultures after RA treatment. Scale bars, 100 m. (FIG. 8E) Purity of Sox2, Pax6, HoxB4, and HoxD10 after 4 days of RA treatment. Sox2, Pax6, and HoxB4 were quantified using flow cytometry and HoxD10 was quantified by manual counting of dissociated cells ([…]). Error bars are standard deviation calculated from at least two biological replicates. […] (FIG. 8F) Motor neuron differentiation at cervical, thoracic, and lumbar spinal cord depths, where the motor neuron precursors show region-specific patterns of FoxP1, Isl1, and Hb9 co-expression. (FIG. 8G) Neuronal maturation from cervical, thoracic, and lumbar patterned NSCs, as assessed by immunocytochemistry (top panel; DAPI (blue) is overlaid in all images; Scale bars, 20 m) and RT-PCR (50 cycles; bottom panel).
# Flow cytometry. Flow cytometry was conducted as described in the Examples above. Primary antibodies against Sox2 (mouse; 1:1000; Millipore), brachyury (goat; 1:200; R&D Systems), Pax6 (mouse; 1:200; DSHB), and HoxB4 (rat; 1:50; DSHB) were utilized. Samples were run on a FACSCaliber (BD Biosciences) and data were analyzed using Cyflogic software. Positive events were quantified by gating above the top 1% of species-matched IgG controls.
# We next evaluated the transition of neuromesodermal progenitors to definitive neural progenitors. RA secreted from somites in response to declining FGF signaling elicits dorsal/ventral patterning and expression of the neuroectoderm marker Pax6 in vivo^16, 26, which led us to suspect RA serves as both the neuroectoderm fate switch and HOX ‘stop signal’. We first investigated the ability of RA to initiate neuroectoderm specification from neuromesodermal progenitors. […] At any point in neuromesodermal differentiation, the addition of RA generated highly pure (>83%) Pax6^+ neuroectoderm (FIGS. 8B-8E and FIGS. 9A-9C).
# [6] = tested on: IMR90-4 iPSCs; experiment: Neuromesodermal differentiation from IMR90-4 iPSCs; type: cell-based, human
# Experimental: FIGS. 11A-11C show neuromesodermal differentiation from IMR90-4 iPSCs. (FIG. 11A) Timeline of neuromesodermal differentiation. (FIG. 11B) Neuromesodermal identity assessed during differentiation in 2 or 3 μM CHIR 99021. Grey histograms, IgG control. Red histograms, label of interest. Data are presented as mean±standard deviation calculated from two biological replicates. […] (FIG. 11C) Colinear HOX activation observed by qPCR during neuromesodermal differentiation. Each gene is normalized to its maximum expression. Error bars are standard deviation calculated from duplicate reactions.
# Differentiation was conducted according to the protocol of FIG. 11A. Neuromesodermal identity was assessed during differentiation in both 2 and 3 μM CHIR (FIG. 11B). Grey histograms are IgG control, and red histograms are the label of interest. […] During neuromesodermal propagation, progressive HOX activation was verified by qPCR (FIG. 11C).
# [7] = neuromesodermal progenitors exposed to E6 medium with the substance
smiles,measurement,setting,value
C[C@H](NC(=O)Cc1cc(F)cc(F)c1)C(=O)N[C@H](C(=O)OC(C)(C)C)c1ccccc1 [DAPT],NeuN+ neuronal lineage cells,[1],> 95%
CN(C)CCCn1cc(C2=C(c3c[nH]c4ccccc34)C(=O)NC2=O)c2ccccc21 [GF109203X],maximum dose that did not kill all cells,[2],3 µM
same,Sox2+ cells,[2],99%
c1cc(-c2cnn3cc(-c4ccc(OCCN5CCCCC5)cc4)cnc23)ccn1 [dorsomorphin],Pax6+ cells,[3],83±4%
O=c1cc(N2CCOCC2)oc2c(-c3ccccc3)cccc12 [LY-294002],Sox2+ cells,[2],99%
N#CC(=C(/N)Sc1ccccc1N)/C(C#N)=C(\N)Sc1ccccc1N [U0126],Sox2+ cells,[2],99%
Cc1c[nH]c(-c2cnc(NCCNc3ccc(C#N)cn3)nc2-c2ccc(Cl)cc2Cl)n1 [CHIR 99021],HOX gene activation (RT-PCR),"[4]; morphogen added to E6 medium, up to 4 days",could induce Hox gene expression; also recorded: induced progressive HOX activation from HOXA1 down to HOXC5
same,OTX2 expression reduction compared to RA,"[4]; qPCR day 5, CHIR 99021 3 μM, RA 1 μM",> 100 fold
same,Effect on ability of RA to induce Pax6 expression,[5]; added with RA,repressed its ability to induce Pax6 expression
same,Brachyury+ cells,[5]; [7],96±1%
same,Sox2+ cells,[5]; [7],50±8%
same,Neuromesodermal identity,[6]; 2 μM CHIR,maintained the neuromesodermal state
same,Neuromesodermal identity,[6]; 3 μM CHIR,resulted in a mesodermal shift
